From US5728686A, “Alkylxanthine phosphonates and alkylxanthine phosphine oxides and their use as pharmaceuticals” (Hoechst Aktiengesellschaft, priority 1996, dated 1998)
In brackets after ≈: the same amount, converted by molar mass.

What was measured:
[1] = tested on: isolated guinea pig lung strips, Platelet activating factor (PAF); assay: antagonist of PAF-induced contraction of isolated guinea pig lung strips; format: cell-based; conditions: Cavia porcellus, read-out: Anticontractile action (lung), PAF: concentration range corresponding to the IC50 value
Method in brief: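 Guinea pig lung strips, 3 mm wide, held at 4 g preload in modified Krebs-Henseleit at 37° C, gassed 95% O2/5% CO2, contracted by PAF or LTD4. Compound given cumulatively at 1, 3, 6 and 10 μg/ml; value is the concentration in μg/ml giving IC50-level effect.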

[2] = tested on: muscle group (gastrocnemius, plantaris and soleus) of the immobilized right rear extremity; assay: rat muscle function test: direct electrical stimulation of muscle group after 3 weeks' immobilization; format: in vivo, male Wistar rats; conditions: isotonic stimulation; oral, 1x per day for 3 weeks, as a rule 25 mg/kg; control approx. -25%; ≤-12% classified as active
Method in brief: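 Male Wistar rats (about 300 g) had the right hindlimb immobilized in a plastic cast for 3 weeks while dosed orally once daily, usually 25 mg/kg in carboxymethylcellulose. Under pentobarbital, the gastrocnemius/plantaris/soleus group was stimulated directly: isometric force (0.5N preload, 15 min) as area-under-curve, and isotonic work (body-weight preload, 15 min) in J; results as Δ% immobilized vs contralateral muscle.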

[3] = tested on: Endotoxin (LPS) from Salmonella abortus equi; assay: effect on endotoxin fatality (LPS-induced septic shock); format: in vivo, female NMRI mice; conditions: 25 mg/kg i.p. at the same time as LPS 60 mg/kg i.p.; 72 hours; vs placebo control
Method: 2. Test for effect on endotoxin fatality
Individual injections of lipopolysaccharide (LPS), from gram-negative bacteria, lead via a series of various symptoms to septic shock, which usually turns out to be fatal. Endotoxin (LPS) from Salmonella abortus equi in a dose of 60 mg/kg i.p. leads to shock and to death with at most 72 h p.a. (the dose of 60 mg/kg corresponds to approximately 1.20 mg of LPS/animal).
The experimental animals used are female NMRI mice from the Hoechst AG/Hattersheim animal breeding unit having a body weight of 22 to 24 g.
The test substances administered intraperitoneally (i.p.) in an administration volume of 10 ml/kg at the same time as the LPS. The number of surviving animals after 72 hours' LPS administration is indicated in comparison to a placebo control. The number of tested animals per group is 5; dose 25 mg/kg.

[4] = tested on: isolated guinea pig trachea, agonist PGF2α; assay: antagonist of PGF2α-induced contraction of isolated guinea pig trachea; format: cell-based; conditions: Cavia porcellus, 37° C., read-out: Anticontractile action (trachea), PGF2α: concentration range for dilatation corresponding to ED50 range
Excerpt: 3. Activity as antagonist of the contraction of isolated guinea pig trachea
The compounds of the formula I are used as antagonists of the contraction of isolated guinea pig trachea. The agonists employed were PGF2α (Upjohn, Germany), calcium ionophore A23187 (Calbiochem, Bad Soden, Germany), and substance P (American Peptide Comp., USA):
Inhibition of contractions which are induced by this cyclooxygenase product is only possible by competitive antagonism at the receptor or of the subsequent signal pathway.
Preparation of the organ sections and experimental procedure:
The guinea pig is sacrificed by means of terminal laughing gas anaesthesia. The trachea is exposed along its entire length and cut into 15 individual cartilage rings. 5 rings in each case are tied together to give a chain and fixed in the organ bath under a preload of 3 g. After an equilibration time of 45 minutes, a contraction is produced using the agonist. The antagonist (test preparation) is added cumulatively on the plateau of the maximum. Evaluation is carried out in % force change relative to the contraction maximum. The experimental procedure is carried out at 37° C.; the physiological nutrient solution used is a modified Krebs-Henseleit solution through which is bubbled 95% by volume of O2, 5% by volume of CO2.
Experimental animals: albino guinea pigs (Hattersheim Animal Breeding Institute, Kastengrund, Germany), weight: 200 to 300 g, sex male or female.
Vehicle: double-distilled water, ethanol or isopropanol; administration: into the organ bath number of administration: cumulative, in SP individual doses
All numerical values are indicated in the unit μg/ml and relate to the concentration range of the tested compound of the formula I according to the invention (see example numbers in Table 1) which is necessary in order to cause a dilatation which corresponds to the ED50 range.

CCOP(=O)(CCCn1cnc2c1c(=O)[nH]c(=O)n2C)OCC [Example 2, Diethyl [4-(3-methylxanthin-7-yl)propyl]phosphonate]
IC50 [1]: 3 to 6 mg/L (≈ 8.71 to 17.4 µM)
Work (performed work, right/left difference) [2]: +5 Δ %
Inhibition of mortality [3]: 100%
EC50 [4]: > 10 mg/L
